In patent US20060134204A1, “Complexes made using low solubility drugs” (priority 2004, published 2006) one finds crystallinity data, which are given here for two compounds.

The nature of this series: Crystallinity of the complex by powder X-ray diffraction (XRD). The note with it: PANalytical X'Pert Pro, percent crystallinity. Format: physicochemical. An excerpt: “Crystallinity” means the degree to which a chemical entity is present in a crystalline form. This degree can be expressed in units such as percent crystallinity. X-Ray diffraction (“XRD”) techniques can be used to determine crystallinity of substances, including inventive substances. From an XRD spectra, the percent crystallinity may be calculated as: Percent crystallinity=(sum of net intensity)/(sum of observed intensity) where the sum of net intensity=integrated area of peak intensity above the baseline, and sum of observed intensity=integrated area of total peak intensity including sum of net intensity and integrated area under baseline. Additional information about use of XRD to determine percent crystallinity may be found in R. Jenkins et al., Introduction to X-Ray Powder Diffractometry, John Wiley & Sonds, Inc. (1996). Qualitative determination of crystallinity of the complex of Example 1 was conducted with PANalytical X'Pert Pro Powder X-ray Diffraction (XRD) System. […] The crystallinity of sodium lauryl sulfate was determined to be 32%, and the crystallinity of the physical mixture was determined to be 50%.

`OCCC#Cc1nc(-c2ccc(F)cc2)c(-c2ccncc2)n1CCCc1ccccc1` [4-(4-Fluorophenyl)-2-(4-hydroxy-1-butynyl)-1-(3-phenylpropyl)-5-(4-pyridyl)imidazole]: the crystallinity came out at 63%.

As for `CCCCCCCCCCCCOS(=O)(=O)[O-].[Na+]` [sodium lauryl sulfate], the crystallinity is listed as 32%.
